Series [1] concerns the target T1, endoplasmic reticulum Ca2+-ATPase (SERCA), SR vesicles from rabbit skeletal muscle (Oryctolagus cuniculus, UniProt P04191).
T1 construct: sarcoplasmic reticulum (SR) vesicles prepared from rabbit skeletal muscle; from tissue; host or cells: rabbit skeletal muscle sarcoplasmic reticulum vesicles
As to the kind of experiment: SERCA inhibition: 45Ca2+ uptake to sarcoplasmic reticulum vesicles. In kind it is biochemical. On the procedure:
The primary amine-containing thapsigargin analogs of the invention have endoplasmic reticulum Ca^2+-ATPase inhibitory activity. This activity is measured as the concentration of analog needed to inhibit 50% of this ATPase (IC50). The IC50 of the analogs of the invention is desirably at most 500 nM, preferably at most 200 nM, and more preferably at most 50 nM of analog.
The inhibitory potency of thapsigargin and its analogs was determined as the concentration required to produce 50% inhibition (i.e. IC50) of ^45Ca^2+ uptake to sarcoplasmic reticulum (SR) vesicles prepared from rabbit skeletal muscle by the method of De Meis and Hasselbach (J. Biol. Chem., 246: 4759-4763, 1971). The ^45Ca^2+ uptake assay was as described previously (Christensen, et al., FEBS, 335: 345-348, 1993), with the following modifications: 5 μg/ml of SR protein was incubated at 25EC and free Ca^2+ adjusted to 100 nM using 4 min. uptake time. Under these conditions, Ca^2+ could proceed linearly with time for at least 8 minutes. Measurements of Ca^2+ within TSU cells was determined as described previously (Lin et al., The Prostate, 33:201-207, 1997).
(§1) The IC50 results are mean (n=3)±standard error. The LC50 results are mean (n=5)±standard error. The entry “ND” stands for “not determined”. Clonogenic survival not determined above 10 μM for dBTG. Analogs with −boc have a t-butoxycarbonyl (boc) protected amino group.

Series [2] is described as follows: Clonogenic survival of TSU-Pr1 cells after 72 hours exposure to TG analogs. In kind it is cell-based, human. Particulars: human; TSU-Pr1, 72 hours exposure; mean (n=5) ± standard error; read-out: LC50 (concentration needed to kill 50% of clonogenic cells). On the procedure:
The primary amine-containing thapsigargin analogs of the invention have non-specific toxicity toward cells. This toxicity is measured as the concentration of analog needed to kill 50% of clonogenic cells (LC50). The LC50 of the analogs of the invention is desirably at most 20 μM, preferably at most 5 μM, and more preferably at most 500 nM of analog.
Percentage clonogenic survival of TSU-Pr1 (2×10^5 cells) following 72 hours of exposure to varying concentrations of TG analogs was performed as described in Martikainen et al. Cancer Res., 51, 4693-4700 (1991).
as §1
The androgen responsive PSA-producing LNCaP and androgen independent PSA non-producing TSU-Pr1 are human prostate cancer lines were obtained from ATCC (Rockville, Md.) and maintained by serial passage in RPMI 1640 media containing 10% fetal calf serum with 100 units/ml penicillin G, and 100 units/ml streptomycin sulfate (antibiotics from M.A. Bioproducts, Walkerville, Md.) as standard media in 5% CO2/95% air at 37° C. The origins and characteristics of the LNCaP and TSU-Pr1 cell lines are described in Horoszewicz, et al., Cancer Res., 43:1809-1818, (1980)and Iizumi, et al., J. Urol, 137: 1304-1306, (1987).

Where [3] appears, read: mean (n=3) ± standard error, 5 μg/ml SR protein, free Ca2+ 100 nM, 4 min uptake, read-out: IC50 (50% inhibition of 45Ca2+ uptake to SR vesicles).

Where two headings read alike, the source gives them in different places.

The record followed here is patent US6545131B1, “Tissue specific prodrug” (priority 1997, dated 2003).

For orientation: IC50 means the concentration at which inhibition is half-maximal.

T1 sequence (P04191 1-994 isoform P04191-2): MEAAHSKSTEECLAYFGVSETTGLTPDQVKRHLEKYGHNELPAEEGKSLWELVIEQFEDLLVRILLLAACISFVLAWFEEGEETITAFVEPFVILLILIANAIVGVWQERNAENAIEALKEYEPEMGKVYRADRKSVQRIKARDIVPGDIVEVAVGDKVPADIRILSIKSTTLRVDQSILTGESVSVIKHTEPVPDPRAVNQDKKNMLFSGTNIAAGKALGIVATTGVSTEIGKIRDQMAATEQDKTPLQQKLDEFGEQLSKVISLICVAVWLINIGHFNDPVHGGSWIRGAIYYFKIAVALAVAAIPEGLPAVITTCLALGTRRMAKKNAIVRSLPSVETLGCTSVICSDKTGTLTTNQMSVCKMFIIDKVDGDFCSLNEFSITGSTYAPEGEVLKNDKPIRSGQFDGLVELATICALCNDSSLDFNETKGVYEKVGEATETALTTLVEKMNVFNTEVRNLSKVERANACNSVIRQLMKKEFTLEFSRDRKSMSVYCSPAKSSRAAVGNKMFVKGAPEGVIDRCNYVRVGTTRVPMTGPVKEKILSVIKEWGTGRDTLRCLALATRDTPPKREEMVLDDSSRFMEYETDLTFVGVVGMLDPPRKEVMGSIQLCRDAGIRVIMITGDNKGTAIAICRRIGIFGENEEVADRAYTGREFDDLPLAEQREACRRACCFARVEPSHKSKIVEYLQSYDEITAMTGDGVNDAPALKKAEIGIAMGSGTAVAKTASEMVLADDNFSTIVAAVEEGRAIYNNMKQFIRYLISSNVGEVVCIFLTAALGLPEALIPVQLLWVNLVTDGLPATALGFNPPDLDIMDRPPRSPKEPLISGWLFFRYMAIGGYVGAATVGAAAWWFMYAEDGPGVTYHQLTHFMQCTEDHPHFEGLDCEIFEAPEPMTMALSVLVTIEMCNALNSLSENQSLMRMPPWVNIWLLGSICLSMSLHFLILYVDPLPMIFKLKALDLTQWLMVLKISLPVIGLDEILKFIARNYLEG

Regarding `C/C=C(/C)C(=O)O[C@H]1C(C)=C2[C@H]([C@@H]1OC(=O)CCCCCCC)[C@@](C)(OC(C)=O)C[C@H](OC(=O)CCCCCC(=O)Nc1ccc(C)c(N)c1)[C@@]1(O)[C@H]2OC(=O)[C@@]1(C)O` [PDT, 8-O-{6-(N-[3-amino-4-methylphenyl]-carboxamido)hexanoyl}-8-O-debutanoylthapsigargin], the IC50 in series [1] (setting [3]) turned out to be 17.7 ± 2.4 nM. In addition, in series [2], the CC50 is 3100 ± 200 nM.

For `C/C=C(/C)C(=O)O[C@H]1C(C)=C2[C@H]([C@@H]1OC(=O)CCCCCCC)[C@@](C)(OC(C)=O)C[C@H](OC(=O)CCC(=O)Nc1ccc(C)c(N)c1)[C@@]1(O)[C@H]2OC(=O)[C@@]1(C)O` [SDT, 8-O-{3-(N-[3-amino-4-methylphenyl]-carboxamido)propanoyl}-8-O-debutanoylthapsigargin], the IC50 in series [1] (setting [3]) worked out at 1280 ± 91 nM. Besides, in series [2], the CC50 was over 25000 nM.

As for `C/C=C(/C)C(=O)O[C@H]1C(C)=C2[C@H]([C@@H]1OC(=O)CCCCCCC)[C@@](C)(OC(C)=O)C[C@H](OC(=O)/C=C/c1ccc(NC(=O)OC(C)(C)C)cc1)[C@@]1(O)[C@H]2OC(=O)[C@@]1(C)O` [ACT-boc, 8-O-(4-t-butoxycarbonylaminocinnamoyl)-8-O-debutanoylthapsigargin], the IC50 in series [1] (setting [3]) worked out at 20.3 ± 0.2 nM. The CC50 in series [2] is 1900 ± 100 nM.

In the case of `C/C=C(/C)C(=O)O[C@H]1C(C)=C2[C@H]([C@@H]1OC(=O)CCCCCCC)[C@@](C)(OC(C)=O)C[C@H](OC(=O)CCCC(=O)Nc1ccc(C)c(N)c1)[C@@]1(O)[C@H]2OC(=O)[C@@]1(C)O` [GDT, 8-O-{4-(N-[3-amino-4-methylphenyl]-carboxamido)butanoyl}-8-O-debutanoylthapsigarg in], the IC50 in series [1] (setting [3]) worked out at 316 ± 23 nM. Moreover, the CC50 in series [2] amounted to 16600 ± 400 nM.

In the case of `C/C=C(/C)C(=O)O[C@H]1C(C)=C2[C@H]([C@@H]1OC(=O)CCCCCCC)[C@@](C)(OC(C)=O)C[C@H](OC(=O)CCc1ccc(NC(=O)OC(C)(C)C)cc1)[C@@]1(O)[C@H]2OC(=O)[C@@]1(C)O` [APT-boc, 8-O-(3-[4-t-butoxycarbonylaminophenyl]propionyl)-8-O-debutanoylthapsigargin], the IC50 in series [1] (setting [3]) was found to be 21.2 ± 0.8 nM. For the same molecule, the CC50 in series [2] worked out at 870 ± 15 nM.

For `C/C=C(/C)C(=O)O[C@H]1C(C)=C2[C@H]([C@@H]1OC(=O)CCCCCCC)[C@@](C)(OC(C)=O)C[C@H](OC(=O)CCCc1ccc(NC(=O)OC(C)(C)C)cc1)[C@@]1(O)[C@H]2OC(=O)[C@@]1(C)O` [ABuT-boc, 8-O-(4-[4-t-butoxycarbonylaminophenyl]butanoyl)-8-O-debutanoylthapsigargin], in series [1], half-maximal inhibition (IC50) required 14.4 ± 0.8 nM.

Regarding `C/C=C(/C)C(=O)O[C@H]1C(C)=C2[C@H]([C@@H]1OC(=O)CCCCCCC)[C@@](C)(OC(C)=O)C[C@H](OC(=O)c1ccc(N)cc1)[C@@]1(O)[C@H]2OC(=O)[C@@]1(C)O` [ABT, 8-O-(4-aminobenzoyl)-8-O-debutanoylthapsigargin], in series [1] (setting [3]), the IC50 turned out to be 18.4 ± 0.3 nM. For the same molecule, the CC50 in series [2] came out at 4000 ± 300 nM.

Consider `C/C=C(/C)C(=O)O[C@H]1C(C)=C2[C@H]([C@@H]1OC(=O)CCCCCCC)[C@@](C)(OC(C)=O)C[C@H](OC(=O)CCCc1ccc(N)cc1)[C@@]1(O)[C@H]2OC(=O)[C@@]1(C)O` [ABuT, 8-O-(4-[4-aminophenyl]butanoyl)-8-O-debutanoylthapsigargin], for which the IC50 in series [1] (setting [3]) stood at 18.4 ± 1.4 nM. Besides, the CC50 in series [2] came out at 225 ± 20 nM.

On to `C/C=C(/C)C(=O)O[C@H]1C(C)=C2[C@H]([C@@H]1OC(=O)CCCCCCC)[C@@](C)(OC(C)=O)C[C@H](OC(=O)CCc1ccc(N)cc1)[C@@]1(O)[C@H]2OC(=O)[C@@]1(C)O` [APT, 8-O-(3-[4-aminophenyl]propionyl)-8-O-debutanoylthapsigargin], for which the half-maximal inhibitory concentration (IC50) in series [1] (setting [3]) worked out at 16.2 ± 0.9 nM. Also, the CC50 in series [2] was 275 ± 60 nM.
